Laboratory results as given in ChEMBL document CHEMBL1201862, “PubChem BioAssay data set” (2004).
Calls of active or inactive are those of the source.

How the values were obtained:
[1] = HEp-2 cell cytotoxicity, dose response, cytotoxicity control for RSV inhibitor project, HTS (AID 2410); format: functional; details: human respiratory syncytial virus
[2] = tested on: Streptococcus sp. 'group A'; assay: growth inhibition of control SK(-) GAS strain, dose response, counter-screen for streptokinase expression inhibitor project, luminescence, kanamycin, BacTiterGlo, confirmation (AID 1900); format: functional, organism-based
Streptokinase A = molecular target: T1, Streptokinase A (Streptococcus pyogenes serotype M1, UniProt P10520); assay: S. pyogenes streptokinase expression inhibitors, potency, dose response, plasminogen activation absorbance, OD405 (AID 1914); format: functional, Streptococcus pyogenes M1 GAS;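 also: secreted streptokinase activity via plasminogen activation per viability signal from cell pellet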
T1 sequence (P10520 whole entry): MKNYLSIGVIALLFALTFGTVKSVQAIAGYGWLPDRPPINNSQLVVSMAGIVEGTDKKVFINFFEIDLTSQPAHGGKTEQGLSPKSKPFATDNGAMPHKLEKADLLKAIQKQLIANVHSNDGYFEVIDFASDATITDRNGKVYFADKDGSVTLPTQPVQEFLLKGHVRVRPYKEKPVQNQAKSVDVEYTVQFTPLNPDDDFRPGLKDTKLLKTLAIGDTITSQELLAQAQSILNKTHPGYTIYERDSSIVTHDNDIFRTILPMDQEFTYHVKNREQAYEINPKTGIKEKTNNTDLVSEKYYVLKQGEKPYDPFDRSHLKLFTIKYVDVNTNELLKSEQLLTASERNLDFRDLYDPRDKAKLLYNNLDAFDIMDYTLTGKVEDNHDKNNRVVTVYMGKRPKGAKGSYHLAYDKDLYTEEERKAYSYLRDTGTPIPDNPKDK

Streptococcus = assay: Group A Streptococcus viability loss, dose response, counter-screen for streptokinase expression inhibitor project, luminescence, BacTiterGlo (AID 1915); format: functional, organism-based;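 also: potency for reduction of bacterial viability or growth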
[3] = molecular target: T2, Methionyl-tRNA synthetase, putative (Trypanosoma brucei brucei, UniProt Q38C91); format: functional, Trypanosoma brucei brucei strain 927/4 GUTat10.1
T2 sequence (Q38C91 whole entry): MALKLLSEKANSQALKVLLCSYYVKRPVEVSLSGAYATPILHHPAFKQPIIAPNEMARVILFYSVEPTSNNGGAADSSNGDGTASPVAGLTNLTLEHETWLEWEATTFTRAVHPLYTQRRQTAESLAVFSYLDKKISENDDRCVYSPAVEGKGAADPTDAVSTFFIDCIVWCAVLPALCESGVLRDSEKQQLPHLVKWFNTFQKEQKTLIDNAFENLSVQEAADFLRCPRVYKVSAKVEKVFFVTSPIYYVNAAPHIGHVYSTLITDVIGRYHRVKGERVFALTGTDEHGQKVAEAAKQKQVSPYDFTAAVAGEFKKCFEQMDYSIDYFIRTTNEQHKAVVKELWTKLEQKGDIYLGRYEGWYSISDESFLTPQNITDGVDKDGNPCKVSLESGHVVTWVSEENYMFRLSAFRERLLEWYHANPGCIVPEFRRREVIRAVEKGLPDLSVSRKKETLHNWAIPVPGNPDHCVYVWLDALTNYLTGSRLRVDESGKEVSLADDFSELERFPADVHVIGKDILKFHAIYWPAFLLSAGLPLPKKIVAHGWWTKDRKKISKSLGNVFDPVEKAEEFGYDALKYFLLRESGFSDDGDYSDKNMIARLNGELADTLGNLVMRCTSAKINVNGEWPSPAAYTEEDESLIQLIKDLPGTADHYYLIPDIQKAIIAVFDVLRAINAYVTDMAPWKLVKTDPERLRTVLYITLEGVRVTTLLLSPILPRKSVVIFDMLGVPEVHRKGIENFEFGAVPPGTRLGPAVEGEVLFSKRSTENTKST

[4] = Counterscreen for inhibitors of Trypanosoma brucei methionyl tRNA synthetase (MetRS): Luminescence-based cell-based high throughput dose response assay to identify compounds that are cytotoxic to Jurkat human T lymphocyte cells.; format: functional
[5] = molecular target: T2, Methionyl-tRNA synthetase, putative; format: functional, Trypanosoma brucei brucei strain 927/4 GUTat10.1; remark: listed apart in the source
[6] = molecular target: T3, Low molecular weight phosphotyrosine protein phosphatase (Homo sapiens, UniProt P24666); format: functional; details: read-out: IC50_Mean;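 also: Dose-response confirmation assay measuring inhibition of LMPTP enzyme activity by fluorescence intensity read-out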
T3 sequence (P24666 whole entry): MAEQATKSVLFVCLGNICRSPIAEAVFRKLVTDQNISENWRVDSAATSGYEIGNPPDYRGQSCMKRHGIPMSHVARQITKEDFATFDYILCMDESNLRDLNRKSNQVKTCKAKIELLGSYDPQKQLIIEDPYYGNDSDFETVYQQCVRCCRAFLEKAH

[7] = molecular target: T4, Mitochondrial peptide methionine sulfoxide reductase (Bos taurus, UniProt P54149); assay: Absorbance-based biochemical high throughput dose response assay for activators of Methionine sulfoxide reductase A (MsrA).; format: functional
T4 sequence (P54149 whole entry): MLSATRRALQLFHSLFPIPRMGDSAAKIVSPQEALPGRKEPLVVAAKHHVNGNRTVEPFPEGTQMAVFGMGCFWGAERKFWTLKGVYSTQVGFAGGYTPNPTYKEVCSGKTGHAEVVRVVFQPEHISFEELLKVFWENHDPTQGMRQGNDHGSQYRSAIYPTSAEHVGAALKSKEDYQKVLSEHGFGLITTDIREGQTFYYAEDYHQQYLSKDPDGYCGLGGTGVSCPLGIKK

[8] = molecular target: Disintegrin and metalloproteinase domain-containing protein 17 (Homo sapiens, UniProt P78536); assay: exosite inhibitors of ADAM17, dose response, biochemical (AID 743260)
[9] = ADAM10 protease inhibitors, dose response, selectivity assay for ADAM17 exosite inhibitor project, biochemical, FRET peptide substrate, recombinant human ADAM10 (AID 743259);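 also: ADAM10 enzyme cleaving a FRET peptide substrate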
[10] = molecular target: FAD-linked sulfhydryl oxidase ALR (Homo sapiens, UniProt P55789); assay: inhibitors of human ALR sulfhydryl oxidase, dose response, biochemical, H2O2 detection, luminescence, cherry-pick (AID 493248)
[11] = molecular target: Photoreceptor-specific nuclear receptor (Homo sapiens, UniProt Q9Y5X4); format: functional, cell-based;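 also: CHO-S cells with Gal4-NCOR and VP16-NR2E3 two-hybrid luciferase reporter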
[12] = microbe, parasite or virus in culture; format: functional; details: Mycobacterium tuberculosis
INS1 = assay: beta cell apoptosis inhibitors, cytokine rescue, dose response, luminescence, retest (AID 449756); format: functional, cell-based; details: Rattus norvegicus;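 also: cell death triggered by IL-1 beta plus TNF-alpha plus IFN-gamma mixture; protective hits raise ATP signal compared with cytokine alone wells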
[13] = inhibitors of HIV Env-driven cell fusion, dose response, cherry-pick (AID 652057); format: functional, cell-based
[14] = CEM21 lymphoblast cell cytotoxicity, dose response, cytotoxicity control for viral fusion inhibitor project, CellTiter-Glo luminescence, cherry-picked (AID 652042); format: functional, cell-based;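 also: potency for signal decrease meaning cytotoxicity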
[15] = ZM109 Env clade C HIV-1 fusion inhibitors, dose response, HeLa effector, CEM target cells, luciferase, cherry-pick (AID 652058); format: functional, cell-based
[16] = off-target signal loss in HeLa-CEM21 co-culture – HeLa F-luc CTL cells, cherry-picked, counter-screen for HIV-1 Env fusion inhibitor project, dose response (AID 652040); format: functional, cell-based;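 also: potency for signal decrease marking cytotoxic or nonspecific inhibition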
[17] = inhibitors of clade B AD8 Env fusion, dose response, cell-based, cherry-pick (AID 652062); format: functional;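 also: luciferase signal from cell-cell fusion driven by HIV-1 clade B AD8 Env; potency is for inhibitors of fusion seen as a drop in luminescence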
Beta-galactosidase = Beta-galactosidase (Escherichia coli, UniProt Q8VNN2); assay: PubChem AID 485352; format: functional
[18] = molecular target: T5, Type-1 angiotensin II receptor (Homo sapiens, UniProt P30556); assay: AT1 receptor antagonists, dose response, selectivity assay for APJ receptor antagonist project, cell-based, uHTS hits (AID 463214); format: functional;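 also: antagonist potency against angiotensin II stimulated AT1 response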
T5 sequence (P30556 whole entry): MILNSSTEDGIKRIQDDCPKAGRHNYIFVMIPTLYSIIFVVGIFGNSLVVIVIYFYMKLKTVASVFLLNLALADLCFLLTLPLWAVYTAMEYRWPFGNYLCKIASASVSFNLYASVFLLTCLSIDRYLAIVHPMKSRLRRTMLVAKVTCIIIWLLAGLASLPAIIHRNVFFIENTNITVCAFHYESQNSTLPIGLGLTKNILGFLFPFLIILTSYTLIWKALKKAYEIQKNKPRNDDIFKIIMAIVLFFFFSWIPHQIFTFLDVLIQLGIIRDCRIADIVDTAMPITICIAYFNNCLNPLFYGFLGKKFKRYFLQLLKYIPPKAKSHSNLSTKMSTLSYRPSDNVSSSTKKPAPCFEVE

FAD-linked sulfhydryl oxidase ALR, sequence (P55789 whole entry, the tested form may be a part): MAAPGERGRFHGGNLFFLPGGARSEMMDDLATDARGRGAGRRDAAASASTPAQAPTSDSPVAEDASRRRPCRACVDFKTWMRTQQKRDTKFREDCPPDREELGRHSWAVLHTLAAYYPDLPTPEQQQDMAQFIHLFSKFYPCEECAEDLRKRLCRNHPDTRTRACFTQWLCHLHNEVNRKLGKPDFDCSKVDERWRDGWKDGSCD
Disintegrin and metalloproteinase domain-containing protein 17, sequence (P78536 whole entry, the tested form may be a part): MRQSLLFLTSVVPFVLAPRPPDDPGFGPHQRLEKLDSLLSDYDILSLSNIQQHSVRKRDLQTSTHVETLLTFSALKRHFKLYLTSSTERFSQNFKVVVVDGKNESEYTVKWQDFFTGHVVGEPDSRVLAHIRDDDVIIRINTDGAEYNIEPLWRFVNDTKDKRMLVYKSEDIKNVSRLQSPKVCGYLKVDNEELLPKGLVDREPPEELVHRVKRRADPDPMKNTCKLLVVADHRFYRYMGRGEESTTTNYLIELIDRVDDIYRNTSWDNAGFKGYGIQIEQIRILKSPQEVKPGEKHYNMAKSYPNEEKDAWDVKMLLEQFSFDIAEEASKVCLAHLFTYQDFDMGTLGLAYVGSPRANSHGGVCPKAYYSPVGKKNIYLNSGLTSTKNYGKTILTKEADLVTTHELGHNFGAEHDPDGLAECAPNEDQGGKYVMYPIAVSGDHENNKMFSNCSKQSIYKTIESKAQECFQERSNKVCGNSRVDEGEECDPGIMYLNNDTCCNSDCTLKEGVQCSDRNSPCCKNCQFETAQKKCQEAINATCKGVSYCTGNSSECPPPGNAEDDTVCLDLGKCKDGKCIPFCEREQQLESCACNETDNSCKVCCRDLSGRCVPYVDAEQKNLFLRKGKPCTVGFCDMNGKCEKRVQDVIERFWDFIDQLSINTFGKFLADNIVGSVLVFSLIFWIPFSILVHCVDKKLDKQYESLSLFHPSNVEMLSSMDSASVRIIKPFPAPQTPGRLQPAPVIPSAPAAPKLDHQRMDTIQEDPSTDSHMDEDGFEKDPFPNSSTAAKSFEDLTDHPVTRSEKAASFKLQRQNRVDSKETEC
Beta-galactosidase, sequence (Q8VNN2 whole entry): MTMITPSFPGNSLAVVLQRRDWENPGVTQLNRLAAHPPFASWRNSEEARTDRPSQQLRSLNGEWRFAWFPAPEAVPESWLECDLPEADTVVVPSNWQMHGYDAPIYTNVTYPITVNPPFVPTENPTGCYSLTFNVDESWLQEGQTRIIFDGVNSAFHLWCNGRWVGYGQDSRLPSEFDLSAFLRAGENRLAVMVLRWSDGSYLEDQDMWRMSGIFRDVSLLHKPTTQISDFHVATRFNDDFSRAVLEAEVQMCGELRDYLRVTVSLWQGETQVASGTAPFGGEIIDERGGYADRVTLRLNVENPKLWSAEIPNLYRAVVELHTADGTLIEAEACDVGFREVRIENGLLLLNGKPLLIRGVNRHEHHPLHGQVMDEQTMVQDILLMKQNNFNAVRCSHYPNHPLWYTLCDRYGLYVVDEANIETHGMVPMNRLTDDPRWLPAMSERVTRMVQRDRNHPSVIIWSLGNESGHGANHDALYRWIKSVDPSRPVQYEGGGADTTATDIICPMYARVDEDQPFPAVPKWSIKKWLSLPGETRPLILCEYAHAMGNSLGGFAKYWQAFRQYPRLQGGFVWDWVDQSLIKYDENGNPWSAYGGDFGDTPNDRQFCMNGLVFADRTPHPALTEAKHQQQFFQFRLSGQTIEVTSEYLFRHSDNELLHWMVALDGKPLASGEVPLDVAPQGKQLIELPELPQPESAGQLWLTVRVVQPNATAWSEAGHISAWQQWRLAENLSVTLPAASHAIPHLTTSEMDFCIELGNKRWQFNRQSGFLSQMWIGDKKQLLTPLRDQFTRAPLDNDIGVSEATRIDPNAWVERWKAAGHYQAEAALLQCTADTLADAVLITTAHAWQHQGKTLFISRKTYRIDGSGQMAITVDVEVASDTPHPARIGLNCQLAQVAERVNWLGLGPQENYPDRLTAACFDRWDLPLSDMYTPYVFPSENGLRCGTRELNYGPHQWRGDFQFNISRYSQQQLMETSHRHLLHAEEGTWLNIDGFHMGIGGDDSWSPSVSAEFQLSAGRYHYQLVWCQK
Photoreceptor-specific nuclear receptor, sequence (Q9Y5X4 whole entry, the tested form may be a part): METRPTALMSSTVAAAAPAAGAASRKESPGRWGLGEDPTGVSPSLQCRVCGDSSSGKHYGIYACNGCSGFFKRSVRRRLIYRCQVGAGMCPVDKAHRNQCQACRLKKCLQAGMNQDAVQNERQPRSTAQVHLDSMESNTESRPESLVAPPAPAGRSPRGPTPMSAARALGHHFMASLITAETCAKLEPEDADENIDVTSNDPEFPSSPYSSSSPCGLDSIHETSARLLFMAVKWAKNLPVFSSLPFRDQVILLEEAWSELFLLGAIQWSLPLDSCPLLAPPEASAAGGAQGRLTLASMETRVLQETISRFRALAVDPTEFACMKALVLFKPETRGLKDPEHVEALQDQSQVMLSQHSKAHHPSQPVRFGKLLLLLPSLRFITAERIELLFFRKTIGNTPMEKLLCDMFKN

For O=C(NNC(=O)c1cc(-c2ccc(Cl)cc2Cl)nc2ccccc12)Nc1ccccc1, the CC50 [1] was 16.9 µM (active), the EC50 [2] was 5.3 µM (active) and the EC50 (Streptokinase A) was 20.4 µM (active). For the same molecule, the EC50 (Streptococcus) was 8.55 µM (active), the IC50 [3] was 2.74 µM (active) and the IC50 [4] was 42.2 µM (inactive). For the same molecule, the IC50 [5] was 1.28 µM (active).
With O=C(Nc1ccc(O)c(-c2nc3ccccc3s2)c1)c1cc(=O)c2ccccc2o1 the IC50 [6] was 5.27 µM (active).
In the case of COc1cc(Nc2ccc(C(=O)O)cc2[N+](=O)[O-])cc(OC)c1, the EC50 [7] is reported as > 104 µM (inactive).
In the case of O=C(COC(=O)c1ccc([N+](=O)[O-])s1)NC(c1ccccc1)c1ccccc1, the EC50 [7] is reported as 32.8 µM (inactive).
With CC(=O)Oc1ccc(C(=O)Nc2cccc(C(=O)c3ccc(C)c(C)c3)c2)cc1 the IC50 [8] was > 69.5 µM (inactive) and the IC50 [9] was > 69.5 µM (inactive).
For CC(=O)Nc1ccc(S(=O)(=O)N2CCN=C2SCc2ccc([N+](=O)[O-])cc2)cc1, the AC50 [10] was 0.252 µM (active) and the IC50 [11] was 2.82 µM (active).
For CC(=O)Nc1ccc(S(=O)(=O)Nc2ccc(N3CCCCC3)cc2)cc1, the CC50 [12] was 27.3 µM (active), the AC50 [10] was 2.07 µM (active) and the AC50 (INS1) was 3.64 µM (active). For the same molecule, the AC50 [13] was 10.4 µM (active), the AC50 [14] was 23.4 µM (active) and the AC50 [15] was 1.18 µM (active). The AC50 [16] was 22.6 µM (active) and the AC50 [17] was 17.8 µM (active).
With COc1ccc(N=C2C(=O)Nc3ccc(C)c(Br)c32)cc1 the EC50 (Beta-galactosidase) was > 40 µM (inactive) and the IC50 [18] was 3.94 µM (active).
With O=C(O)c1cn(C2CC2)c2cc(N3CCN(S(=O)(=O)c4ccc5c(c4)OCCO5)CC3)c(F)cc2c1=O the IC50 [6] was 2.89 µM (active).
